Values quoted from earlier work in patent publication US4230714A, “Imidazole therapeutic agents” (Pfizer Inc., priority 1978, dated 1980).

Columns and labels:
[1] = tested on: platelet clumping and embolization in the lungs; conditions: rabbit, intravenous arachidonic acid
[2] = tested on: human blood platelet aggregation; conditions: variety of aggregating agents
[3] = tested on: aggregation of platelets; conditions: rat, extra corporeal loop of the abdominal aorta

CC(=O)Oc1ccccc1C(=O)O [aspirin]
protection from the lethal effect of arachidonic acid injection [1]: protect the rabbit from the lethal effect of the injection | inhibitory activity against platelet aggregation in vitro [2]: show inhibitory activity in vitro

O=C1C(CC[S+]([O-])c2ccccc2)C(=O)N(c2ccccc2)N1c1ccccc1 (stereo not shown) [sulphinpyrazone]
prevention of platelet aggregation in vivo [3]: prevent the aggregation of platelets | inhibitory activity against platelet aggregation in vitro [2]: show inhibitory activity in vitro
